Measurements: ChEMBL document CHEMBL5614424, “Natural Product-Inspired Discovery of Naphthoquinone-Furo-Piperidine Derivatives as Novel STAT3 Inhibitors for the Treatment of Triple-Negative Breast Cancer” (J Med Chem, 2024)
Calls of active or inactive are those of the source. The calls are words filed in the database; no cut-off is given here.

Tests used:
[1] = system: MDA-MB-468; experiment: Antiproliferative activity against human MDA-MB-468 cells assessed as cell viability incubated for 48 hrs measured after additional incubation with MTT; type: functional, cell-based; conditions: MDA-MB-468, 48 h
[2] = system: MDA-MB-231; experiment: Antiproliferative activity against human MDA-MB-231 cells assessed as cell viability incubated for 48 hrs measured after additional incubation with MTT; type: functional, cell-based; conditions: MDA-MB-231, 48 h
[3] = system: L02; experiment: Antiproliferative activity against human L02 cells assessed as cell viability incubated for 48 hrs measured after additional incubation with MTT; type: functional, cell-based; conditions: L02, 48 h
[4] = Antiproliferative activity against human MCF-10A cells assessed as cell viability incubated for 48 hrs measured after additional incubation with MTT; type: toxicity, cell-based
[5] = Cmax in male rat at 10 mg/kg, po measured upto 24 hrs by LC/MS/MS analysis; type: ADME, organism-based; conditions: in vivo
[6] = Tmax in male rat at 10 mg/kg, ip measured upto 24 hrs by LC/MS/MS analysis; type: ADME, organism-based; conditions: in vivo
[7] = Cmax in male rat at 5 mg/kg, iv measured upto 24 hrs by LC/MS/MS analysis; type: ADME, organism-based; conditions: in vivo
[8] = Tmax in male rat at 5 mg/kg, iv measured upto 24 hrs by LC/MS/MS analysis; type: ADME, organism-based; conditions: in vivo
[9] = AUC(0 to infinity) in male rat at 5 mg/kg, iv measured upto 24 hrs by LC/MS/MS analysis; type: ADME, organism-based; conditions: in vivo
[10] = AUC(0 to infinity) in male rat at 10 mg/kg, ip measured upto 24 hrs by LC/MS/MS analysis; type: ADME, organism-based; conditions: in vivo
[11] = Tmax in male rat at 10 mg/kg, po measured upto 24 hrs by LC/MS/MS analysis; type: ADME, organism-based; conditions: in vivo
[12] = AUC(0 to infinity) in male rat at 10 mg/kg, po measured upto 24 hrs by LC/MS/MS analysis; type: ADME, organism-based; conditions: in vivo
[13] = AUC(0 to t) in male rat at 10 mg/kg, po measured upto 24 hrs by LC/MS/MS analysis; type: ADME, organism-based; conditions: in vivo
[14] = Half life in male rat at 10 mg/kg, po measured upto 24 hrs by LC/MS/MS analysis; type: ADME, organism-based; conditions: in vivo
[15] = Half life in male rat at 5 mg/kg, iv measured upto 24 hrs by LC/MS/MS analysis; type: ADME, organism-based; conditions: in vivo
[16] = Oral bioavailability in male rat at 10 mg/kg measured upto 24 hrs by LC/MS/MS analysis; type: ADME, organism-based; conditions: in vivo
[17] = Half life in male rat at 10 mg/kg, ip measured upto 24 hrs by LC/MS/MS analysis; type: ADME, organism-based; conditions: in vivo
[18] = AUC(0 to t) in male rat at 5 mg/kg, iv measured upto 24 hrs by LC/MS/MS analysis; type: ADME, organism-based; conditions: in vivo
[19] = AUC(0 to t) in male rat at 10 mg/kg, ip measured upto 24 hrs by LC/MS/MS analysis; type: ADME, organism-based; conditions: in vivo
[20] = Cmax in male rat at 10 mg/kg, ip measured upto 24 hrs by LC/MS/MS analysis; type: ADME, organism-based; conditions: in vivo
[21] = system: MDA-MB-468; experiment: Decrease in STAT3 level in human MDA-MB-468 cell at 3 uM measured after 24 hrs by Western blot analysis; type: functional, cell-based
[22] = system: MDA-MB-231; experiment: Decrease in STAT3 level in human MDA-MB-231 cell at 3 uM measured after 24 hrs by Western blot analysis; type: functional, cell-based
[23] = biological target: Signal transducer and activator of transcription 3 (Homo sapiens) (UniProt P40763); experiment: Suppression of STAT3 activation in human MDA-MB-231 cell assessed as decrease in phosphorylated STAT3 (p-STAT3 Tyr705) level at 3 uM measured after 24 hrs by Western blot analysis; type: cell-based
Sequence of Signal transducer and activator of transcription 3 (Homo sapiens) (P40763 whole entry): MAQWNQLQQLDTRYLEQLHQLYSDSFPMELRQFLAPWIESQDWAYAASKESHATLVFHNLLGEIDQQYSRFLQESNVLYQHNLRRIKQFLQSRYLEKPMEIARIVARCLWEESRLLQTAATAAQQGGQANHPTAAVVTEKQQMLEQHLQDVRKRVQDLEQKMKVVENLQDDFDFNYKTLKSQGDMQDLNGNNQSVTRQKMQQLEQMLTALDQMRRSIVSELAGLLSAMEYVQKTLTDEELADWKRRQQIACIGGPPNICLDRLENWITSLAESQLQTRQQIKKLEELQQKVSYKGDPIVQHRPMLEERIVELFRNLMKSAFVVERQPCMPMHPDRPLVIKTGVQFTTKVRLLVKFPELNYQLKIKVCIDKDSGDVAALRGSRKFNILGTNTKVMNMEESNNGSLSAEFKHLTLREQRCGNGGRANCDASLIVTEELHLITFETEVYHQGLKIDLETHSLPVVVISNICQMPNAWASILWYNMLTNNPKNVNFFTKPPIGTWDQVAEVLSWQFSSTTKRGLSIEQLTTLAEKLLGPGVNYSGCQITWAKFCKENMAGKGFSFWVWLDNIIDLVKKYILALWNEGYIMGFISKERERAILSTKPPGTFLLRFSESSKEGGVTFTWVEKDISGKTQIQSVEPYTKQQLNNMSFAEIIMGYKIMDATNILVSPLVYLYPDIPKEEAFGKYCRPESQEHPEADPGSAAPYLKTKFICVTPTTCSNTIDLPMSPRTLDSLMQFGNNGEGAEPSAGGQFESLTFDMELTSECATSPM

[24] = biological target: Signal transducer and activator of transcription 3 (Homo sapiens) (UniProt P40763); experiment: Suppression of STAT3 activation in human MDA-MB-468 cell assessed as decrease in phosphorylated STAT3 (p-STAT3 Tyr705) level at 3 uM measured after 24 hrs by Western blot analysis; type: cell-based

SMILES | IC50 [1] | IC50 [2] | IC50 [3] | IC50 at 48 h [4] | further results
COC(=O)[C@H](Cc1ccccc1)N1CCc2c(oc3c2C(=O)C(=O)c2ccccc2-3)C1 | 11.4 µM | 8.26 µM |  |  | 
O=C1C(=O)c2c(oc3c2CCN(C(=O)c2ccc(C(F)(F)F)cc2)C3)-c2ccccc21 | 14.7 µM | 14.7 µM |  |  | 
CNC(=O)CCCN1CCc2c(oc3c2C(=O)C(=O)c2ccccc2-3)C1 | 9.45 µM | 7.45 µM |  |  | 
O=C1C(=O)c2c(oc3c2CCN(C(=O)c2ccc(F)cc2)C3)-c2ccccc21 | 12 µM | 10.9 µM |  |  | 
COc1ccc(C(=O)N2CCc3c(oc4c3C(=O)C(=O)c3ccccc3-4)C2)cc1OC | 5.82 µM | 4.59 µM | 7.43 µM | 7.96 µM | 
CC(C)C[C@@H](CO)N1CCc2c(oc3c2C(=O)C(=O)c2ccccc2-3)C1.Cl |  |  |  |  | Cmax [5]: 78.4 ng/mL; Tmax [6]: 6 min; Cmax [7]: 972 ng/mL; Tmax [8]: 4.8 min; AUC(0-inf) [9]: 493 ng·h/mL; AUC(0-inf) [10]: 523 ng·h/mL; Tmax [11]: 0.4 h; AUC(0-inf) [12]: 106 ng·h/mL; AUC(0-t) at 24 h [13]: 107 ng·h/mL; half-life [14]: 6.5 h; half-life [15]: 17.2 h; bioavailability [16]: 10.9%; half-life [17]: 17.2 h; AUC(0-t) at 24 h [18]: 490 ng·h/mL; AUC(0-t) at 24 h [19]: 571 ng·h/mL; Cmax [20]: 272 ng/mL
Cc1ccc(C(=O)N2CCc3c(oc4c3C(=O)C(=O)c3ccccc3-4)C2)cc1 | 16.9 µM | 14.2 µM |  |  | 
C[C@H]1COC2=C1C(=O)C(=O)c1c2ccc2c1CCCC2(C)C [CRYPTOTANSHINONE] | > 20 µM | > 20 µM | > 20 µM | > 20 µM | 
O=C1C(=O)c2c(oc3c2CCN(CCCCO)C3)-c2ccccc21 | 9.48 µM | 6.41 µM |  |  | 
COc1ccc(C(=O)N2CCc3c(oc4c3C(=O)C(=O)c3ccccc3-4)C2)cc1 | > 20 µM | 17.3 µM |  |  | 
CNC(=O)CCN1CCc2c(oc3c2C(=O)C(=O)c2ccccc2-3)C1 | 3.6 µM | 4.5 µM | 12.5 µM | 11 µM | Activity [21]: Active; Activity [22]: Active; inhibition [23]: Active; inhibition [24]: Active
COC(=O)[C@H](Cc1ccc(O)cc1)N1CCc2c(oc3c2C(=O)C(=O)c2ccccc2-3)C1 | 14.3 µM | 7.26 µM |  |  | 
CN(C)c1ccc(C(=O)N2CCc3c(oc4c3C(=O)C(=O)c3ccccc3-4)C2)cc1 | > 20 µM | > 20 µM | > 20 µM | > 20 µM | 
O=C1C(=O)c2c(oc3c2CCNC3)-c2ccccc21 | 9.23 µM | 7.11 µM |  |  | 
O=C1C(=O)c2c(oc3c2CCN(C(=O)c2ccc(Cl)cc2)C3)-c2ccccc21 | 10.7 µM | 13 µM |  |  | 
O=C1C(=O)c2c(oc3c2CCN(C(=O)c2cccnc2)C3)-c2ccccc21 | 5.89 µM | 5.86 µM | 13.3 µM | 9.35 µM | 
O=C1C(=O)c2c(oc3c2CCN(C(=O)c2ccccc2)C3)-c2ccccc21 | 6.86 µM | 5.71 µM | > 20 µM | 19.2 µM | 
COC(=O)CCN1CCc2c(oc3c2C(=O)C(=O)c2ccccc2-3)C1 | 4.13 µM | 5.72 µM | 8.51 µM | 4.55 µM | 
CNC(=O)[C@H](CC(C)C)N1CCc2c(oc3c2C(=O)C(=O)c2ccccc2-3)C1 | 7.36 µM | 7.99 µM |  |  | 
CNC(=O)[C@H](Cc1ccccc1)N1CCc2c(oc3c2C(=O)C(=O)c2ccccc2-3)C1 | 8.05 µM | 8.12 µM |  |  | 
N#Cc1ccc(C(=O)N2CCc3c(oc4c3C(=O)C(=O)c3ccccc3-4)C2)cc1 | 12.6 µM | 14.8 µM |  |  | 
